Assays:
human TRPM8 = biological target: T1, human TRPM8 (Homo sapiens, UniProt Q7Z2W7); assay: In vitro human TRPM8 fluorescence calcium flux assay (recombinant CHO cells, Fluo4-AM, FDSS6000); format: cell-based; details: recombinant CHO cells expressing human TRPM8; menthol-related EC50, normalized to 100 μM menthol
T1 construct: expressed in transfected cells; host or cells: CHO (p658 mammalian expression vector)
In short: (§1)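 Agonist EC50 values come from sixteen-point dose responses normalized to the 100 μM menthol maximum, fitted sigmoidally. Calcium rise was followed for 3 min post-addition in recombinant CHO lines (human or pig TRPM8). Cells were dye-loaded with 2 μM Fluo4-AM, 1 h at room temperature, probenecid-containing HBSS.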

pig TRPM8 = biological target: T2, pig TRPM8 (Sus scrofa, UniProt F1SM15); assay: In vitro pig TRPM8 fluorescence calcium flux assay (recombinant CHO cells, Fluo4-AM, FDSS6000); format: cell-based; details: recombinant CHO cells expressing pig TRPM8; menthol-related EC50, normalized to 100 μM menthol
T2 construct: expressed in transfected cells; host or cells: CHO (pcDNA5/FRT/TO vector; hygromycin B and blasticidin selection)
In short: as §1

T1 sequence (Q7Z2W7 whole entry): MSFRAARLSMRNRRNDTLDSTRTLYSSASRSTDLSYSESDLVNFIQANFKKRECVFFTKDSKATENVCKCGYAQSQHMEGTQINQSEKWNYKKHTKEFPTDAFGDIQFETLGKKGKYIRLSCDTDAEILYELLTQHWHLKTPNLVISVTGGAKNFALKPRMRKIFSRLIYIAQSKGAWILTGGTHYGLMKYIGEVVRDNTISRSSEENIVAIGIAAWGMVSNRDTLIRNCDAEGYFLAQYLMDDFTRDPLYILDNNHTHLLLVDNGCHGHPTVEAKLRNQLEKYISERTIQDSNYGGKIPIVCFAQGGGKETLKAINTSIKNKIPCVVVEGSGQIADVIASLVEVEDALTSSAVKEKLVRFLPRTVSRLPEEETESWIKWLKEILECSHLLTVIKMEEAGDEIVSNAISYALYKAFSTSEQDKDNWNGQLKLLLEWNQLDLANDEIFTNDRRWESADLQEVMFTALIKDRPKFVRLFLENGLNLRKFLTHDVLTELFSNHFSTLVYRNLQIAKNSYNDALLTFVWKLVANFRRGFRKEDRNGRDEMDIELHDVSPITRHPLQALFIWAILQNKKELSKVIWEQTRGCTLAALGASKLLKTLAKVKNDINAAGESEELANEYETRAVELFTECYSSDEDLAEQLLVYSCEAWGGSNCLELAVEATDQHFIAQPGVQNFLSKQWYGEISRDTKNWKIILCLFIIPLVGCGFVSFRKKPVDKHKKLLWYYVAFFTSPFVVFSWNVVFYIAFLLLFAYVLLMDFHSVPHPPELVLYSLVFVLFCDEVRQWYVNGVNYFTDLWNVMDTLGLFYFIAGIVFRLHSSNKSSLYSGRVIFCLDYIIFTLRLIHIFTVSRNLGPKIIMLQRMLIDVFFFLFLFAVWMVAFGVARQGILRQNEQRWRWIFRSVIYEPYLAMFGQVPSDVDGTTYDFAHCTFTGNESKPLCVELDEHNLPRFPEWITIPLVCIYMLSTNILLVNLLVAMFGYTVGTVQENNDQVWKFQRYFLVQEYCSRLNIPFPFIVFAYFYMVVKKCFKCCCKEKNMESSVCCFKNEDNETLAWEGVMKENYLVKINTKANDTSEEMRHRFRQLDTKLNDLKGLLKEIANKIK
T2 sequence (F1SM15 1-1104): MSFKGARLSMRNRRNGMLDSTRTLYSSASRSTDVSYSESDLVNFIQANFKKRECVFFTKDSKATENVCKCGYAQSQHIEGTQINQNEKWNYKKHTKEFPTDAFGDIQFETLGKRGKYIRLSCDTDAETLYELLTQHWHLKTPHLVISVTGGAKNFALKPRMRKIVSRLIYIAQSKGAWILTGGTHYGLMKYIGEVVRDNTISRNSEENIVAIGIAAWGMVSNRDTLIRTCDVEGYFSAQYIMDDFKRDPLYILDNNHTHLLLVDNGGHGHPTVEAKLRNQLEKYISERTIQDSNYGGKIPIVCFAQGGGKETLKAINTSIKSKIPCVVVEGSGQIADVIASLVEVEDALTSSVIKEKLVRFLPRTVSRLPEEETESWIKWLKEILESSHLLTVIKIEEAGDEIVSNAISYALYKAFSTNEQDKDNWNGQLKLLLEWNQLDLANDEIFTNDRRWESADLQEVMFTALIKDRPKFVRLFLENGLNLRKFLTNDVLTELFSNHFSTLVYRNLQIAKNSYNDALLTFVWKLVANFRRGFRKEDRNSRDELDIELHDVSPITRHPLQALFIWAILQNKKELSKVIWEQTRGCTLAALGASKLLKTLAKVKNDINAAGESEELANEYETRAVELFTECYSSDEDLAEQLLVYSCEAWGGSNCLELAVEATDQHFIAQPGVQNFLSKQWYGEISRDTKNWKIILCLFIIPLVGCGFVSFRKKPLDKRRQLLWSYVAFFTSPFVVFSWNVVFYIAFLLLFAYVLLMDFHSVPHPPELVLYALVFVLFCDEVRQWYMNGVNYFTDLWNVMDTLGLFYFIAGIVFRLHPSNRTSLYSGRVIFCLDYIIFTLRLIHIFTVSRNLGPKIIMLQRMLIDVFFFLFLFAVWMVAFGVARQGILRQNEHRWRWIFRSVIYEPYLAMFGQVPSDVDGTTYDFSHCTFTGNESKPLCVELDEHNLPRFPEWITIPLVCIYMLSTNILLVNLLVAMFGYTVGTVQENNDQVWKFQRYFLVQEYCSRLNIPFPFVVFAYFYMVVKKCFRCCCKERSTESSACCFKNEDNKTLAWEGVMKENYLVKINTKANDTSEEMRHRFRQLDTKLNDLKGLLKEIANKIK

EC50 (human TRPM8) [nM]	EC50 (pig TRPM8) [nM]	Structure (SMILES)
3	2	Cc1cccc(C(O)CNC(=O)[C@]2(O)C[C@H](C)CC[C@H]2C(C)C)c1 (stereo partly drawn) [Example 12, (1S,2S,5R)-1-hydroxy-N-(2-hydroxy-2-(m-tolyl)ethyl)-2-isopropyl-5-methylcyclohexane-1-carboxamide]
30.8	28.4	CC(C)[C@@H]1CC[C@@H](C)C[C@@]1(O)C(=O)NCCc1cccc(C(=O)OC[C@H](C)O)c1 [Example 105, (S)-2-hydroxypropyl 3-(2-((1S,2S,5R)-1-hydroxy-2-isopropyl-5-methylcyclohexane-1-carboxamido)ethyl)benzoate]
4.1	2.3	[2H]C(O)(CNC(=O)[C@]1(O)C[C@H](C)CC[C@H]1C(C)C)c1ccccc1 (single isomer, unassigned) [Example 92]
334	343	CC(C)[C@@H]1CC[C@@H](C)C[C@@]1(O)C(=O)N[C@@H](C)CCc1ccc(O)cc1 [Example 168, (1S,2S,5R)-1-hydroxy-N-[(1S)-3-(4-hydroxyphenyl)-1-methyl-propyl]-2-isopropyl-5-methyl-cyclohexanecarboxamide]
188	126	CC(C)[C@@H]1CC[C@@H](C)C[C@@]1(O)C(=O)NCc1c[nH]c2ccccc12 [Example 151]
11.9	4.6	Cc1cccc([C@H](O)CNC(=O)[C@]2(O)C[C@H](C)CC[C@H]2C(C)C)c1 [Example 46, (1S,2S,5R)-1-hydroxy-N-((2S)-hydroxy-2-(m-tolyl)ethyl)-2-isopropyl-5-methylcyclohexane-1-carboxamide]
5.3	1.7	CC(C)[C@@H]1CC[C@@H](C)C[C@@]1(O)C(=O)NCC(=O)c1cc(F)ccc1F [Example 139, (1S,2S,5R)-N-[2-(2,5-difluorophenyl)-2-oxo-ethyl]-1-hydroxy-2-isopropyl-5-methyl-cyclohexanecarboxamide]
92.5	25.7	COc1ccc(CCNC(=O)[C@]2(O)C[C@H](C)CC[C@H]2C(C)C)cc1O [Example 126, (1S,2S,5R)-1-hydroxy-N-[2-(3-hydroxy-4-methoxy-phenyl)ethyl]-2-isopropyl-5-methyl-cyclohexanecarboxamide]
90	93	COC(=O)Cc1ccccc1CCNC(=O)[C@]1(O)C[C@H](C)CC[C@H]1C(C)C [Example 77, methyl 2-(2-(2-((1S,2S,5R)-1-hydroxy-2-isopropyl-5-methylcyclohexane-1-carboxamido)ethyl)phenyl)acetate]
641	586	CC(C)[C@@H]1CC[C@@H](C)C[C@@]1(O)C(=O)N[C@@H](CO)Cc1ccccc1 [Example 47, (1S,2S,5R)-1-hydroxy-N-((2R)-1-hydroxy-3-phenylpropan-2-yl)-2-isopropyl-5-methylcyclohexane-1-carboxamide]
6.2	4.3	Cc1ccccc1CCNC(=O)[C@]1(O)C[C@H](C)CC[C@H]1C(C)C [Example 59, (1S,2S,5R)-1-hydroxy-2-isopropyl-5-methyl-N-(2-methylphenethyl)cyclohexane-1-carboxamide]

From patent US20240124408A1 (Sanofi, priority 2020, published 2024)
